# Reference: patent US20260216347A1, “Substituted Imidazo-Based Compounds as Ligand Directed Degraders of IRAK3” (Celgene Corporation, priority 2022, published 2026)
# Assays:
# IRAK3 [1] = target: T1, IRAK3 (Homo sapiens, UniProt Q9Y616); assay: IRAK endogenous HTRF degradation assay (Total-IRAK3 HTRF kit); type: cell-based; settings: overnight incubation, lowest percentage of protein remaining
# T1 construct: IRAK Endogenous HTRF Degradation Assay; endogenous in cells
# T1 sequence (Q9Y616 1-596): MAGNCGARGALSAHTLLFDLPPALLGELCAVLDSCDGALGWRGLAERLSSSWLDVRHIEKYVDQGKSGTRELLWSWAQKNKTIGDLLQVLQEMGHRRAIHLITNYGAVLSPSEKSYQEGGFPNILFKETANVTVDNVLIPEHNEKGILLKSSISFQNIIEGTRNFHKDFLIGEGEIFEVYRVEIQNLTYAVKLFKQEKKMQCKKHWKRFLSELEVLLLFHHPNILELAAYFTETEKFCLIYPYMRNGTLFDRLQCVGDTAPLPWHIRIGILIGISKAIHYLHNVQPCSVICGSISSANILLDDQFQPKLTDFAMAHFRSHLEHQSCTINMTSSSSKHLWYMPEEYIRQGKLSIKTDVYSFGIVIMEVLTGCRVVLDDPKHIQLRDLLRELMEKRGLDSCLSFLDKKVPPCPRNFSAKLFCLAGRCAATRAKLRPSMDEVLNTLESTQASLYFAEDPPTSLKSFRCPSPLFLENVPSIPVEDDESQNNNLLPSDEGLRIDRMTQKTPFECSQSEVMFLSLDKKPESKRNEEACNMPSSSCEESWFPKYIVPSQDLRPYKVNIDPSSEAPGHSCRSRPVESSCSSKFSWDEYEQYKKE
# Procedure, shortened: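 Cells (~50 k) incubated overnight with 3-fold serial dilutions of compound, then lysed; total IRAK3 read by HTRF (665/615 nm ratio ×10,000), normalized to DMSO as 100%. EC50 from four-parameter logistic fit; Dmax = 100 − Ymin (lowest % protein remaining); DC50 = concentration giving 50% degradation.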
# IRAK3 [2] = target: T1, IRAK3; assay: IRAK3 biochemical binding assay (LanthaScreen Eu Kinase Binding, TR-FRET)
# Procedure, shortened: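 TR-FRET tracer-displacement binding with 10 nM IRAK3, 2 nM Eu-anti-GST antibody and 10 nM tracer in 50 mM HEPES pH 7.4, MgCl2, 1 mM EGTA, 0.01% Brij-35. Compounds in 3-fold dilutions, 1 h at room temperature. 665/615 nm ratio gave % inhibition; IC50 and Hill slope from dose-response fit.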
IRAK3 HTRF degradation Ymin (IRAK3 [1]) [%],IC50 (IRAK3 [2]) [nM],SMILES
12,1.1,"Cc1cc(-c2cnc(Nc3cnn([C@H]4CCN(CCN5CCN(c6ccc(C7CCC(=O)NC7=O)cc6)CC5)[C@@H](C)C4)c3)c3nccn23)c(F)cc1F (stereo partly drawn) [Compound 26, 3-(4-(4-(2-((2S,4S)-4-(4-((5-(2,4-difluoro-5-methylphenyl)imdazo [1,2-a]pyrazin-8-yl)amino)-1H-pyrazol-1-yl)-2-methylpiperidin-1-yl)ethyl)piperazin-1-yl)phenyl) piperidine-2,6-dione]"
14,7.6,"Cc1cc(-c2cnc(Nc3cnn([C@H]4CC[C@@H](CCN5CCN(c6ccc(C7CCC(=O)NC7=O)cc6)C[C@@H]5C)CC4)c3)c3nccn23)c(F)cc1F (stereo partly drawn) [Compound 27, 3-(4-((S)-4-(2-((cis)-4-(4-((5-(2,4-difluoro-5-methylphenyl)imidazo[1,2-a]pyrazin-8-yl)amino)-1H-pyrazol-1-yl)cyclohexyl)ethyl)-3-methylpiperazin-1-yl)phenyl) piperidine-2,6-dione]"
